Test results from patent US20250059179A1, “Heterocyclic Compounds and Methods of Use” (AMGEN INC., priority 2021, published 2025).

Key:
[1] = biological target: GDP-bound KRAS protein (aa 1-169), containing both G12D and C118A amino acid substitutions (Homo sapiens, UniProt P01116, C118A/G12D); assay: KRAS G12D Coupled Nucleotide Exchange Assay; format: biochemical; conditions: 2 h compound pre-incubation; SOS-mediated nucleotide exchange, cRAF AlphaScreen readout;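 further: IC50 obtained by fitting the AlphaScreen signal with a four-parameter logistic curve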
Chain of GDP-bound KRAS protein (aa 1-169), containing both G12D and C118A amino acid substitutions (P01116 1-169 isoform P01116-2 G12D/C118A): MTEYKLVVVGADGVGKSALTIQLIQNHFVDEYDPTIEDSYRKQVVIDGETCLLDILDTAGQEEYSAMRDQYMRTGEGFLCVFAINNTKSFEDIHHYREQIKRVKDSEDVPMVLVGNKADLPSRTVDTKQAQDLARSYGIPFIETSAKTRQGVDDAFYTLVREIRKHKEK

[2] = test system: Phosphorylation of ERK1/2 in A-427 cells; assay: Phospho-ERK1/2 MSD Assay; format: cell-based; conditions: Homo sapiens, A-427, 2 h, 2 h compound treatment, read-out: pERK (A427 cells) IC50
Method: A-427 (ATCC® HTB-53™) cells were cultured in RPMI 1640 Medium (ThermoFisher Scientific 11875093) containing 10% fetal bovine serum (ThermoFisher Scientific 16000044) and 1× penicillin-streptomycin-glutamine (ThermoFisher Scientific 10378016). Sixteen hours prior to compound treatment, A-427 cells were seeded in 96-well cell culture plates at a density of 25,000 cells/well and incubated at 37° C., 5% CO2. A compound dose-response titration was diluted in growth media, added to appropriate wells of a cell culture plate, and then incubated at 37° C., 5% CO2 for 2 h. Following compound treatment, cells were washed with ice-cold Dulbecco's phosphate-buffered saline, no Ca^2+ or Mg^2+ (ThermoFisher Scientific 14190144), and then lysed in RIPA buffer (50 mM Tris-HCl pH 7.5, 1% Igepal, 0.5% sodium deoxycholate, 150 mM NaCl, and 0.5% sodium dodecyl sulfate) containing protease inhibitors (Roche 4693132001) and phosphatase inhibitors (Roche 4906837001). Phosphorylation of ERK1/2 in compound-treated lysates was assayed using Phospho-ERK1/2 Whole Cell Lysate kits (Meso Scale Discovery K151DWD) according to the manufacturer's protocol. Assay plates were read on a Meso Scale Discovery Sector Imager 6000, and data were analyzed using a 4-parameter logistic model to calculate IC50 values.

[3] = biological target: His-tagged KRAS G12D protein (Homo sapiens, UniProt P01116, G12D); assay: KRAS G12D TR-FRET Assay; format: binding; conditions: biotinylated KRPep-2d substrate, 10 μM GDP;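 further: europium anti-His antibody paired with streptavidin-d2 as FRET partners, initial 30 min incubation, then peptide 1 h and detection reagents 1 h, all at room temperature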
Chain of His-tagged KRAS G12D protein (P01116 1-188 isoform P01116-2 G12D): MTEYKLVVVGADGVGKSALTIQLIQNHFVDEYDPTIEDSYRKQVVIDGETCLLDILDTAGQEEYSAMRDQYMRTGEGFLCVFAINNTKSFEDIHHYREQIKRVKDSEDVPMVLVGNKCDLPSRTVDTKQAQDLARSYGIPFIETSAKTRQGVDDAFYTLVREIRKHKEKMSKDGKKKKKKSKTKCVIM

## Nc1nc2c(-c3c(Cl)cc4c(N5[C@@H]6CC[C@H]5CNC6)nc(OC[C@@]56CCCN5C[C@H](F)C6)nc4c3F)ccc(F)c2s1 [Example 2, 4-(4-((1R,5S)-3,8-diazabicyclo[3.2.1]octan-8-yl)-6-chloro-8-fluoro-2-(((2R,7aS)-2-fluorotetrahydro-1H-pyrrolizin-7a(5H)-yl)methoxy)quinazolin-7-yl)-7-fluorobenzo[d] thiazol-2-amine]
[1]
  Avg 2 h Coupled Exchange IC50: 0.004 µM
[2]
  IC50: 0.023 µM
[3]
  IC50: 0.005 µM

## CN1C[C@H](F)C[C@H]1COc1nc(N2[C@@H]3CC[C@H]2CNC3)c2cc(Cl)c(-c3ccc(F)c4sc(N)nc34)c(F)c2n1 [Example 3, 4-(4-((1R,5S)-3,8-diazabicyclo[3.2.1]octan-8-yl)-6-chloro-8-fluoro-2-(((2S,4R)-4-fluoro-1-methylpyrrolidin-2-yl)methoxy)quinazolin-7-yl)-7-fluorobenzo[d] thiazol-2-amine]
[1]
  Avg 2 h Coupled Exchange IC50: 0.005 µM
[2]
  IC50: 0.194 µM
[3]
  IC50: 0.006 µM

## Nc1nc2c(-c3c(Cl)cc4c(N5CCCNC(=O)C5)nc(OC[C@@]56CCCN5C[C@H](F)C6)nc4c3F)ccc(F)c2s1 [Example 4, 4-(7-(2-amino-7-fluorobenzo[d]thiazol-4-yl)-6-chloro-8-fluoro-2-(((2R,7aS)-2-fluorotetrahydro-1H-pyrrolizin-7a(5H)-yl)methoxy)quinazolin-4-yl)-1,4-diazepan-2-one]
[1]
  Avg 2 h Coupled Exchange IC50: 0.005 µM
[2]
  IC50: 4.9 µM
[3]
  IC50: 0.01 µM

## CN1CCC[C@H]1COc1nc(N2CC3CC(C2)N3)c2cc(Cl)c(-c3cccc4sc(N)nc34)c(F)c2n1 [Example 5, 4-(4-(3,6-diazabicyclo[3.1.1]heptan-3-yl)-6-chloro-8-fluoro-2-(((S)-1-methylpyrrolidin-2-yl)methoxy)quinazolin-7-yl)benzo[d]thiazol-2-amine]
[1]
  Avg 2 h Coupled Exchange IC50: 0.005 µM
[2]
  IC50: 2.63 µM
[3]
  IC50: 0.01 µM

## Nc1nc2c(-c3c(Cl)cc4c(N5C[C@H]6C[C@@H](C5)N6)nc(OC[C@@]56CCCN5C[C@H](F)C6)nc4c3F)ccc(F)c2s1 [Example 6, 4-(4-((1R,5S)-3,6-diazabicyclo[3.1.1]heptan-3-yl)-6-chloro-8-fluoro-2-(((2R,7aS)-2-fluorotetrahydro-1H-pyrrolizin-7a(5H)-yl)methoxy)quinazolin-7-yl)-7-fluorobenzo[d] thiazol-2-amine]
[1]
  Avg 2 h Coupled Exchange IC50: 0.005 µM
[2]
  IC50: 0.364 µM
[3]
  IC50: 0.005 µM

## CN1C[C@H](F)C[C@H]1COc1nc(N2C[C@H]3C[C@@H](C2)N3)c2cc(Cl)c(-c3ccc(F)c4sc(N)nc34)c(F)c2n1 [Example 7, 4-(4-((1R,5S)-3,6-diazabicyclo[3.1.1]heptan-3-yl)-6-chloro-8-fluoro-2-(((2S,4R)-4-fluoro-1-methylpyrrolidin-2-yl)methoxy)quinazolin-7-yl)-7-fluorobenzo[d] thiazol-2-amine]
[1]
  Avg 2 h Coupled Exchange IC50: 0.006 µM
[2]
  IC50: 0.531 µM
[3]
  IC50: 0.012 µM

## Nc1nc2c(-c3c(Cl)cc4c(N5[C@@H]6CC[C@H]5CNC6)nc(OCC56CCCN5CC(F)(F)C6)nc4c3F)ccc(F)c2s1 (stereo partly drawn) [Example 9, 4-(4-((1R,5S)-3,8-diazabicyclo[3.2.1]octan-8-yl)-6-chloro-2-((2,2-difluorotetrahydro-1H-pyrrolizin-7a(5H)-yl)methoxy)-8-fluoroquinazolin-7-yl)-7-fluorobenzo[d] thiazol-2-amine]
[1]
  Avg 2 h Coupled Exchange IC50: 0.009 µM
[2]
  IC50: 0.403 µM
[3]
  IC50: 0.007 µM

## CN1CCC[C@H]1CCOc1nc(N2C[C@H]3C[C@@H](C2)N3)c2cc(Cl)c(-c3ccc(F)c4sc(N)nc34)c(F)c2n1 [Example 11, 4-(4-((1R,5S)-3,6-diazabicyclo[3.1.1]heptan-3-yl)-6-chloro-8-fluoro-2-(2-((S)-1-methylpyrrolidin-2-yl)ethoxy)quinazolin-7-yl)-7-fluorobenzo[d] thiazol-2-amine]
[1]
  Avg 2 h Coupled Exchange IC50: 0.011 µM
[2]
  IC50: 8.25 µM
[3]
  IC50: 0.029 µM
